Experiments:
[1] = target: T1, SHP2 (Homo sapiens, UniProt Q06124); test: DiFMUP phosphatase assay with recombinant SHP2; supported by cellular thermal shift assay in HEK293A lysate; format: biochemical
T1 construct: gene PTPN11; GST-SHP2 (residues 205–593)
T1 sequence (Q06124 205-593): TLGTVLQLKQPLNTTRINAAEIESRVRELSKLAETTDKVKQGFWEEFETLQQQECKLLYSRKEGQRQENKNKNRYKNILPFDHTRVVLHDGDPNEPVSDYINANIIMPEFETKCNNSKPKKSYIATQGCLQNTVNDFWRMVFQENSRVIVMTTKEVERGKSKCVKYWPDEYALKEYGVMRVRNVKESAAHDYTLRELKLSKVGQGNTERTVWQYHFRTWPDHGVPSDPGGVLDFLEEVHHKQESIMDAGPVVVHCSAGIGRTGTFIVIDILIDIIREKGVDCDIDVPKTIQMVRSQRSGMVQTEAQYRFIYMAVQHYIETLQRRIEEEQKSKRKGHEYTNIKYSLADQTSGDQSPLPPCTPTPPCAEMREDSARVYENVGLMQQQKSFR

[2] = target: T2, SHP1 (Homo sapiens, UniProt P29350); test: DiFMUP phosphatase assay with recombinant SHP1; supported by thermal stability shift; format: biochemical
T2 construct: gene PTPN6
T2 sequence (P29350 whole entry): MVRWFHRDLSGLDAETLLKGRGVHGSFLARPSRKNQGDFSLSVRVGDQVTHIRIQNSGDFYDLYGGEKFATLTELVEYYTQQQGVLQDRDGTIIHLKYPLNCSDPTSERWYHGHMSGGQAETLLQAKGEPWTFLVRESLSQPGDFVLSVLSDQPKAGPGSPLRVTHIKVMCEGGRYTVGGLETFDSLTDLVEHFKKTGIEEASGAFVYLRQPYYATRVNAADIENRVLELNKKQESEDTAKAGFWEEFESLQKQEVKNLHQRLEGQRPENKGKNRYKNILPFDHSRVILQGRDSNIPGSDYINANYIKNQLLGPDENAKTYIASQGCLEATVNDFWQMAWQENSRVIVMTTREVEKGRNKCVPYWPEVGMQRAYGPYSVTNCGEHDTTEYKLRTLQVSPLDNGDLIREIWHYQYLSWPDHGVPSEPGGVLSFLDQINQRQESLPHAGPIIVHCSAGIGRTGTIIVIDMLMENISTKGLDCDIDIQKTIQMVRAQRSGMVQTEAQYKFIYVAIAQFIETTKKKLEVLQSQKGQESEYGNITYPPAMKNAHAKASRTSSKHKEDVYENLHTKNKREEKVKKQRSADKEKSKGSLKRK

SMILES: O=c1c(O)c(-c2ccc(O)c(O)c2)oc2cc(O)cc(O)c12 [quercetin]
- IC50 [1]: 10.2 ± 0.21 µM
- IC50 [2]: 31.1 ± 1.27 µM
